Results: patent US20110263507A1 (priority 2007, published 2011)
Where two headings read alike, the source gives them in different places. Where a SMILES comes first, the peptide text is derived from it. Where no end group is shown, it is not given here. [ ]: non-standard residue; d: D form. Ala(indol-4-yl) = N[C@@H](Cc1cccc2[nH]ccc12)C(=O)O; 1Nal = N[C@@H](Cc1cccc2ccccc12)C(=O)O; NMeR = CN[C@@H](CCCNC(=N)N)C(=O)O; pGlu = O=C1CC[C@@H](C(=O)O)N1; Tle = CC(C)(C)[C@H](N)C(=O)O; dOrn = NCCC[C@@H](N)C(=O)O; Orn = NCCC[C@H](N)C(=O)O; Dab = NCC[C@H](N)C(=O)O

Legend:
hNTS1 = target: T1, hNTS1 (Homo sapiens, UniProt P30989); assay: Radioligand competition binding with [3H]NT, membranes of CHO-K1 cells expressing hNTS1; conditions: for binding / Kd at hNTS1 in words: text b54; for hNTS1 Selectivity: hNTS1 over hNTS2
T1 construct: expressed in transfected cells; host or cells: CHO-K1
Experimental: CHO-K1 cells that had been stably transfected separately with the hNTS1 or hNTS2 genes were cultured in 150 mm (500 cm^2) Petri plates with 35 ml of Dulbecco's modified Eagle's medium containing 100 μM minimal essential medium nonessential amino acids (Life Technologies, Inc.) supplemented with 5% (v/v) FetalClone II bovine serum product (Hyclone Labs, Logan, Utah). […] The cellular pellet (in Tris-HCl buffer) was stored at […] until the radioligand binding was performed.
For use in binding assays, crude membrane preparations were prepared by centrifugation of the cellular pellet at 35,600×g for 10 min. The supernatant was decanted and discarded, and the cellular pellet was resuspended in 1 ml of Tris-HCl buffer followed by homogenization with a Brinkmann Polytron at setting 5.5 for 15 s. Centrifugation was repeated as above, the supernatant was decanted and discarded, and the cellular pellet was resuspended in 1 ml of Tris-HCl buffer followed by homogenization. Centrifugation was repeated a third time, the supernatant was discarded, and the final cellular pellet was suspended in 0.5-2.5 ml of Tris-HCl buffer. Protein concentration of the membrane preparation was estimated by the method of Lowry et al. using bovine serum albumin as a standard.
Incubation was at 20° C. for 40 min. The assay was routinely terminated by addition of ice-cold 0.9% NaCl (5×1.5 ml), followed by rapid filtration through a GF/B filter strip that had been pretreated with 0.2% or 2% polyethyleneimine. Details of binding assays have been described previously. […] Data were analyzed using the LIGAND program.

hNTS2 = target: T2, hNTS2 (Homo sapiens, UniProt O95665); assay: Radioligand competition binding with [3H]NT, membranes of CHO-K1 cells expressing hNTS2
T2 construct: expressed in transfected cells; host or cells: CHO-K1
Experimental: CHO-K1 cells that had been stably transfected separately with the hNTS1 or hNTS2 genes were cultured in 150 mm (500 cm^2) Petri plates with 35 ml of Dulbecco's modified Eagle's medium containing 100 μM minimal essential medium nonessential amino acids (Life Technologies, Inc.) supplemented with 5% (v/v) FetalClone II bovine serum product (Hyclone Labs, Logan, Utah). CHO cells (subculture 7-15) were harvested at confluence by aspiration of the medium, followed by a wash with ice-cold 50 mM Tris-HCl buffer, pH=7.4, which was discarded, resuspension in 5-15 ml of Tris-HCl, scraping the cells with a plastic spatula into a centrifuge tube, and collection of cells by centrifugation at 300×g for 5 min at 4° C., in a GPR centrifuge (Beckman Instruments, Fullerton, Calif.). The cellular pellet (in Tris-HCl buffer) was stored at −180° C. until the radioligand binding was performed.
Incubation was at 20° C. for 40 min. The assay was routinely terminated by addition of ice-cold 0.9% NaCl (5×1.5 ml), followed by rapid filtration through a GF/B filter strip that had been pretreated with 0.2% or 2% polyethyleneimine. […] Data were analyzed using the LIGAND program.
Curves were generated using the LIGAND program. […] Data are the means of duplicate determinations and are representative results from one of at least three independent experiments.

[1] = Degradation of peptides in plasma in vitro (stability to plasma peptidases); assay type: in vitro ADME; conditions: peptide incubated with human (FIG. 4) or rat plasma
Experimental: All peptides that were stable (half-lives >100 h), such as NT66, NT67, NT69, NT72, and NT73, have either a blocked amino group (N-Methyl-Arg) or a D-amino in the 8 or 9 position (Table 4).

[2] = Table 2, read-out: hNTS2 Geometric Mean ∀ SEM (equilibrium dissociation constant Kd)
[3] = read-out: hNTS1 Geometric Mean ∀ SEM (equilibrium dissociation constant Kd)

T2 sequence (O95665 whole entry): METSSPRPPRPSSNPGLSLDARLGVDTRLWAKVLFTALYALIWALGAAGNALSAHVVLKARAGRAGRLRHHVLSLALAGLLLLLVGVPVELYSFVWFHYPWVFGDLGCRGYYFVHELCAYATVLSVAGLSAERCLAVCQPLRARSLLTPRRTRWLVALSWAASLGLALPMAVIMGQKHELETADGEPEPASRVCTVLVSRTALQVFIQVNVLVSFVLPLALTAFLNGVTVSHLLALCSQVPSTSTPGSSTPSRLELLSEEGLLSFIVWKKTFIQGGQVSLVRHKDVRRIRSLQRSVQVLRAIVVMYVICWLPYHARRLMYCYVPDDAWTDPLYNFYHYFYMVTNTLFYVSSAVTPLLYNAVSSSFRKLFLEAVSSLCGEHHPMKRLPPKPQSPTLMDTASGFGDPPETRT
T1 sequence (P30989 whole entry): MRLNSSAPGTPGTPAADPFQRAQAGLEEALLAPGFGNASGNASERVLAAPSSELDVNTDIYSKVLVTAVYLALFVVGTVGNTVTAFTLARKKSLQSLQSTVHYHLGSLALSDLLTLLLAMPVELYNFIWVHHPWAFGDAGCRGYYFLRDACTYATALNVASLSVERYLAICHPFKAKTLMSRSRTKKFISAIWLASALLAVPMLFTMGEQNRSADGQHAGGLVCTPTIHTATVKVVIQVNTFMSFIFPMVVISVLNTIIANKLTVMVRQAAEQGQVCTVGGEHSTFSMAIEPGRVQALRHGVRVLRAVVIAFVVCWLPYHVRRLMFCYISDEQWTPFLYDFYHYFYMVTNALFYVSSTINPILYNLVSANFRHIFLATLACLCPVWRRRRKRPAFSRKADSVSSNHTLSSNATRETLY

Row | Compound | Kd (hNTS2; [2]) [nM] | hNTS1 Selectivity (hNTS1; Table 2) | Kd (hNTS1; [3]) [nM] | hNTS2 Selectivity (hNTS2; Table 2, hNTS2 over hNTS1) | further results
1 | CC[C@H](C)[C@H](NC(=O)[C@@H](Cc1ccc(O)cc1)NC(=O)[C@@H]1CCCN1C(=O)[C@H](CCCN)NC(=O)[C@@H](N)CCCNC(=N)N)C(=O)N[C@@H](CC(C)C)C(=O)O [NT36, [L-Orn^9,D-Tyr^11]NT(8-13)] (H-R[Orn]P[dY]IL-OH; N-terminus and C-terminus assumed) | 1160 ± 20 |  |  |  | binding / Kd at hNTS1 in words (hNTS1): no detectable binding; Kd at hNTS2 in words (hNTS2; text b54): micromolar Kd's
2 | CC[C@H](C)[C@H](NC(=O)[C@H](Cc1cccc2[nH]ccc12)NC(=O)[C@@H]1CCCN1C(=O)[C@H](CCCNC(=N)N)NC(=O)[C@@H](N)CCCNC(=N)N)C(=O)N[C@@H](CC(C)C)C(=O)O [NT64L, [L-neo-Trp^11]NT(8-13)] |  |  |  |  | degradation in plasma [1]: rapidly degraded
3 | KRPYIL [NT17, [L-Lys^8]NT(8-13)] | 1.2 ± 0.2 | 4.0 | 0.25 ± 0.02 | 0.2 | 
4 | RKPYIL [NT18, [L-Lys^9]NT(8-13)] |  | 0.8 |  | 1.3 | Kd (hNTS1): 1.49 ± 0.09 nM; Kd (hNTS2): 1.18 ± 0.09 nM
5 | RRGYIL [NT07, [Gly^10]NT(8-13)] |  | 0.7 |  | 1.4 | Kd (hNTS1): 1380 ± 50 nM; Kd (hNTS2): 970 ± 40 nM
6 | RRPAIL [NT08, [Ala^11]NT(8-13)] [listing 1 of 2 here] | 58 ± 5 |  |  |  | Kd (hNTS1): 2500 ± 200 nM
7 | RRPAIL [NT08, [Ala^11]NT(8-13)] [listing 2 of 2 here] |  | 0.02 |  | 43 | NTS2 Selectivity (hNTS2; Table 3): 43; hNTS2 Selectivity (hNTS2; Table 4): 43
8 | RRPYLL [NT09, [L-Leu^12]NT(8-13)] |  | 0.3 |  | 2.9 | Kd (hNTS1): 7.2 ± 0.6 nM; Kd (hNTS2): 2.4 ± 0.3 nM
9 | RRPYVL [NT10, [L-Val^12]NT(8-13)] |  | 0.8 |  | 1.3 | Kd (hNTS1): 11.3 ± 0.6 nM; Kd (hNTS2): 8.8 ± 0.4 nM
10 | [DAB^9,L-neo-Trp^11]NT(9-13) [NT75] | 169 ± 8 | 2.3 |  | 0.4 | Kd (hNTS1; Table 2, n.d. = no detectable binding at 1 μM, †/* values published before by the same laboratory, read-out: hNTS1 Geometric Mean ∀ SEM (equilibrium dissociation constant Kd)): 73 ± 5 nM

Now from value to compound, other results behind:

Row | Kd (hNTS2; [2]) [nM] | hNTS1 Selectivity (hNTS1; Table 2) | Kd (hNTS1; [3]) [nM] | hNTS2 Selectivity (hNTS2; Table 2, hNTS2 over hNTS1) | Compound | further results
11 | 1800 ± 100 |  |  |  | CC[C@H](C)[C@H](NC(=O)[C@@H](Cc1ccc(O)cc1)NC(=O)[C@@H]1CCCN1C(=O)[C@@H](CCCN)NC(=O)[C@@H](N)CCCNC(=N)N)C(=O)N[C@@H](CC(C)C)C(=O)O [NT37, [D-Orn^9,D-Tyr^11]NT(8-13)] (H-R[dOrn]P[dY]IL-OH; N-terminus and C-terminus assumed) | binding / Kd at hNTS1 in words (hNTS1): no detectable binding; Kd at hNTS2 in words (hNTS2; text b54): micromolar Kd's
12 | 17 ± 2 | 5.4 | 3.2 ± 0.1 | 0.2 | CC[C@H](C)[C@H](NC(=O)[C@H](Cc1ccc(O)cc1)NC(=O)[C@@H]1CCCN1C(=O)[C@H](CCCN)NC(=O)[C@H](CCCNC(=N)N)NC(=O)[C@@H]1CCCN1C(=O)[C@H](CCCCN)NC(=O)[C@H](CC(N)=O)NC(=O)[C@H](CCC(=O)O)NC(=O)[C@H](Cc1ccc(O)cc1)NC(=O)[C@H](CC(C)C)NC(=O)[C@@H]1CCC(=O)N1)C(=O)N[C@@H](CC(C)C)C(=O)O [NT60, [L-Orn^9]NT(1-13)] ([pGlu]LYENKPR[Orn]PYIL-OH; C-terminus assumed) | 
13 |  | 4.4 | 1500 ± 100 | 0.2 | CC[C@H](C)[C@H](NC(=O)[C@H](Cc1ccc(O)cc1)NC(=O)[C@@H]1CCCN1C(=O)[C@@H](CCCN)NC(=O)[C@H](CCCNC(=N)N)NC(=O)[C@@H]1CCCN1C(=O)[C@H](CCCCN)NC(=O)[C@H](CC(N)=O)NC(=O)[C@H](CCC(=O)O)NC(=O)[C@H](Cc1ccc(O)cc1)NC(=O)[C@H](CC(C)C)NC(=O)[C@@H]1CCC(=O)N1)C(=O)N[C@@H](CC(C)C)C(=O)O [NT61, [D-Orn^9]NT(1-13)] ([pGlu]LYENKPR[dOrn]PYIL-OH; C-terminus assumed) | Kd (hNTS2; text b54, read-out: Kd at hNTS2): 6600 nM
14 | 14.2 ± 0.5 | 1.7 | 8.4 ± 0.3 | 0.6 | CC[C@H](C)[C@H](NC(=O)[C@H](Cc1cccc2ccccc12)NC(=O)[C@@H]1CCCN1C(=O)[C@H](CCCNC(=N)N)NC(=O)[C@H](CCCNC(=N)N)NC(=O)[C@@H]1CCCN1C(=O)[C@H](CCCCN)NC(=O)[C@H](CC(N)=O)NC(=O)[C@H](CCC(=O)O)NC(=O)[C@H](Cc1ccc(O)cc1)NC(=O)[C@H](CC(C)C)NC(=O)[C@@H]1CCC(=O)N1)C(=O)N[C@@H](CC(C)C)C(=O)O [NT62, [L-3,1-Nal^11]NT(1-13)] ([pGlu]LYENKPRRP[1Nal]IL-OH; C-terminus assumed) | 
15 | 0.52 ± 0.03 | 0.5 | 1.01 ± 0.05 | 1.9 | CC(C)C[C@H](NC(=O)[C@@H](NC(=O)[C@H](Cc1cccc2[nH]ccc12)NC(=O)[C@@H]1CCCN1C(=O)[C@H](CCCNC(=N)N)NC(=O)[C@@H](N)CCCNC(=N)N)C(C)(C)C)C(=O)O [NT65, [neo-Trp^11,tert-Leu^12]NT(8-13)] (H-RRP[Ala(indol-4-yl)][Tle]L-OH; N-terminus and C-terminus assumed) | hNTS2 Selectivity (hNTS2; Table 4): 1.7; degradation in plasma [1]: rapidly degraded
16 | 18.1 ± 0.7 | 0.1 | 140 ± 19 | 7.7 | CC(C)C[C@H](NC(=O)[C@@H](NC(=O)[C@H](Cc1c[nH]c2ccccc12)NC(=O)[C@@H]1CCCN1C(=O)[C@H](CCCNC(=N)N)NC(=O)[C@H](N)CCCCN)C(C)(C)C)C(=O)O [NT66T, [D-Lys^8,L-Trp^11,tert-Leu^12]NT(8-13)] (H-[dK]RPW[Tle]L-OH; N-terminus and C-terminus assumed) | 
17 | 8 ± 0.4 | 0.5 | 17 ± 2 | 2.2 | CC[C@H](C)[C@H](NC(=O)[C@H](Cc1c[nH]c2ccccc12)NC(=O)[C@@H]1CCCN1C(=O)[C@H](CCCNC(=N)N)NC(=O)[C@H](N)CCCCN)C(=O)N[C@@H](CC(C)C)C(=O)O [NT67T, [D-Lys^8,L-Trp^11]NT(8-13)] (H-[dK]RPWIL-OH; N-terminus and C-terminus assumed) | 
18 | 1.11 ± 0.03 | 0.7 | 1.71 ± 0.06 | 1.5 | CN[C@@H](CCCNC(=N)N)C(=O)N[C@@H](CCN)C(=O)N1CCC[C@H]1C(=O)N[C@@H](Cc1cccc2[nH]ccc12)C(=O)N[C@H](C(=O)N[C@@H](CC(C)C)C(=O)O)C(C)(C)C [NT71, [N-methyl-Arg^8,DAB^9,L-neo-Trp^11,tert-leu^12]NT(8-13)] (H-[NMeR][Dab]P[Ala(indol-4-yl)][Tle]L-OH; N-terminus and C-terminus assumed) | 
19 | 460 ± 70 | 0.3 | 1500 ± 100 | 3.3 | CC(C)C[C@H](NC(=O)[C@@H](NC(=O)[C@H](Cc1cccc2[nH]ccc12)NC(=O)[C@@H]1CCCN1C(=O)[C@@H](CCCN)NC(=O)[C@@H](N)CCCNC(=N)N)C(C)(C)C)C(=O)O [NT77, [D-Orn^9,L-neo-Trp^11,tert-Leu^12]NT(8-13)] (H-R[dOrn]P[Ala(indol-4-yl)][Tle]L-OH; N-terminus and C-terminus assumed) | hNTS2 Selectivity (hNTS2; Table 4): 3.3
20 | 320 ± 20 | 0.2 | 1530 ± 80 | 4.8 | CC(C)C[C@H](NC(=O)[C@@H](NC(=O)[C@H](Cc1c[nH]c2ccccc12)NC(=O)[C@@H]1CCCN1C(=O)[C@@H](CCCN)NC(=O)[C@@H](N)CCCNC(=N)N)C(C)(C)C)C(=O)O [NT77T, [D-Orn^9,L-Trp^11,tert-Leu^12]NT(8-13)] (H-R[dOrn]PW[Tle]L-OH; N-terminus and C-terminus assumed) | 
21 | 380 ± 40 | 0.3 | 1300 ± 400 | 3.4 | CN[C@@H](CCCNC(=N)N)C(=O)N[C@H](CCCN)C(=O)N1CCC[C@H]1C(=O)N[C@@H](Cc1cccc2[nH]ccc12)C(=O)N[C@H](C(=O)N[C@@H](CC(C)C)C(=O)O)C(C)(C)C [NT78, [N-methyl-Arg^8,D-Orn^9,L-neo-Trp^11,tert-Leu^12]NT(8-13)] (H-[NMeR][dOrn]P[Ala(indol-4-yl)][Tle]L-OH; C-terminus assumed) | 
22 | 660 ± 50 | 0.5 | 1400 ± 300 | 2.1 | CN[C@@H](CCCNC(=N)N)C(=O)N[C@H](CCCN)C(=O)N1CCC[C@H]1C(=O)N[C@@H](Cc1c[nH]c2ccccc12)C(=O)N[C@H](C(=O)N[C@@H](CC(C)C)C(=O)O)C(C)(C)C [NT78T, [N-methyl-Arg^8,D-Orn^9,L-Trp^11,tert-Leu^12]NT(8-13)] (H-[NMeR][dOrn]PW[Tle]L-OH; N-terminus and C-terminus assumed) | 
